Measurements as given in patent publication US9643970B2, “Substituted imidazo [1,5-a]pyrazines as PDE9 inhibitors” (H Lundbeck A/S, priority 2012, dated 2017).
pIC50: −log10 of the molar value.

target: PDE9 (Homo sapiens, UniProt O76083); experiment: PDE9 inhibition assay; format: biochemical; conditions: not given
Description: Reactions are initiated by addition of the cyclic nucleotide substrate, and reactions are allowed to proceed for one hr at room temperature before being terminated through mixing with 15 uL 8 mg/mL yttrium silicate SPA beads (Amersham). […] IC50 values were calculated by non linear regression using XLfit (IDBS).

Sequence of PDE9 (O76083 whole entry): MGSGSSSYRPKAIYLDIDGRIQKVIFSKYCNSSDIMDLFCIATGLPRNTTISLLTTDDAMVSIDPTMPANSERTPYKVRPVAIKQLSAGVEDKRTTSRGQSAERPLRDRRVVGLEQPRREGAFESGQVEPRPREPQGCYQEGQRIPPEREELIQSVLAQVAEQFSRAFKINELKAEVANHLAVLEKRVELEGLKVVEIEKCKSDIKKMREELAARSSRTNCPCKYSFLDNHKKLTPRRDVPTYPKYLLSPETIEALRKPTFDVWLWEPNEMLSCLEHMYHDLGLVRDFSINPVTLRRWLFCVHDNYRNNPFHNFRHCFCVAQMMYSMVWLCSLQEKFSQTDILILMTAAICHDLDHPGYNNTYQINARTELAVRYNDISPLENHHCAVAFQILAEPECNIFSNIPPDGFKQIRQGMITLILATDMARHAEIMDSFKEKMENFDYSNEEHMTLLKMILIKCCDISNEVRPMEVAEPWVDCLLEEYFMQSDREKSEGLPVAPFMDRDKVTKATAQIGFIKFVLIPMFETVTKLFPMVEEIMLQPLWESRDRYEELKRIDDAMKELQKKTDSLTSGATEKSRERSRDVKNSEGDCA

Row | pIC50 | SMILES
1 | 7.66 | CC(C)OC1CN(C(C)c2cn3c(-c4ccc(F)cc4)ncc3c(=O)[nH]2)C1 (centres unmarked) [Compound 116, 3-(4-fluorophenyl)-6-[1-(3-isopropoxyazetidin-1-yl)ethyl]-7h-imidazo[1,5-a]pyrazin-8-one]
2 | 7.03 | CC(C)OC1CN(C(C)c2cn3c(C4CCOCC4)ncc3c(=O)[nH]2)C1 (centres unmarked) [Compound 117, 6-[1-(3-isopropoxyazetidin-1-yl)ethyl]-3-tetrahydropyran-4-yl-7h-imidazo[1,5-a]pyrazin-8-one]
3 | 7.42 | COc1ccc(C2CN(Cc3cn4c(-c5cc(F)cc(F)c5)ncc4c(=O)[nH]3)C2)cc1 [Compound 122, 3-(3,5-difluorophenyl)-6-[[3-(4-methoxyphenyl)azetidin-1-yl]methyl]-7h-imidazo[1,5-a]pyrazin-8-one]
4 | 7.24 | COc1ccc(C2CN(Cc3cn4c(-c5ccc(F)cc5)ncc4c(=O)[nH]3)C2)cc1 [Compound 123, 3-(4-fluorophenyl)-6-[[3-(4-methoxyphenyl)azetidin-1-yl]methyl]-7h-imidazo[1,5-a]pyrazin-8-one]
5 | 7.15 | COc1ccc(C2CN(C(C)c3cn4c(-c5ccc(F)cc5)ncc4c(=O)[nH]3)C2)cc1 (centres unmarked) [Compound 126, 3-(4-fluorophenyl)-6-[1-[3-(4-methoxyphenyl)azetidin-1-yl]ethyl]-7h-imidazo[1,5-a]pyrazin-8-one]

same assay, conditions: SPA assay, 10 nM 3H-cAMP, 1 hour incubation; read-out: IC50

Row | pIC50 | SMILES
6 | 7.46 | N#Cc1cccc(C2CN(Cc3cn4c(C5CCOCC5)ncc4c(=O)[nH]3)C2)c1 [Compound 107, 3-[1-[(8-oxo-3-tetrahydropyran-4-yl-7h-imidazo[1,5-a]pyrazin-6-yl)methyl]azetidin-3-yl]benzonitrile]
7 | 7.47 | O=c1[nH]c(CN2CC(OCc3ccc(Cl)cc3)C2)cn2c(-c3ccc(F)cc3)ncc12 [Compound 108, 6-[[3-[(4-chlorophenyl)methoxy]azetidin-1-yl]methyl]-3-(4-fluorophenyl)-7h-imidazo[1,5-a]pyrazin-8-one]
8 | 7.55 | O=c1[nH]c(CN2CC(Oc3ccc(C(F)(F)F)cc3)C2)cn2c(-c3ccc(F)cc3)ncc12 [Compound 109, 3-(4-fluorophenyl)-6-[[3-[4-(trifluoromethyl)phenoxy]azetidin-1-yl]methyl]-7h-imidazo[1,5-a]pyrazin-8-one]
9 | 7.44 | CC1CN(Cc2ccc(F)cc2)CC1c1cn2c(-c3ccc(Cl)cc3)ncc2c(=O)[nH]1 (centres unmarked) [Compound 110, 3-(4-chlorophenyl)-6-[1-[(4-fluorophenyl)methyl]-4-methyl-pyrrolidin-3-yl]-7h-imidazo[1,5-a]pyrazin-8-one]
10 | 7.13 | CC1CN(Cc2ccc(F)cc2)CC1c1cn2c(-c3ccc(Cl)cc3)nc(Br)c2c(=O)[nH]1 (centres unmarked) [Compound 111, 1-bromo-3-(4-chlorophenyl)-6-[1-[(4-fluorophenyl)methyl]-4-methyl-pyrrolidin-3-yl]-7h-imidazo[1,5-a]pyrazin-8-one]
11 | 7.66 | COC1CN(C(C)C2(C)Cn3c(cnc3C3CCOCC3)C(=O)N2)C1 (centres unmarked) [Compound 112, 6-[1-(3-methoxyazetidin-1-yl)ethyl]-6-methyl-3-tetrahydropyran-4-yl-7h-imidazo[1,5-a]pyrazin-8-one]
12 | 8.05 | Cc1ccc(COC2CN(Cc3cn4c(-c5ccc(F)cc5)ncc4c(=O)[nH]3)C2)cc1 [Compound 113, 3-(4-fluorophenyl)-6-[[3-(p-tolylmethoxy)azetidin-1-yl]methyl]-7h-imidazo[1,5-a]pyrazin-8-one]
13 | 8.15 | CC1CN(Cc2ccccn2)CC1c1cn2c(-c3ccc(F)cc3)ncc2c(=O)[nH]1 (centres unmarked) [Compound 114, 3-(4-fluorophenyl)-6-[4-methyl-1-(2-pyridylmethyl)pyrrolidin-3-yl]-7h-imidazo[1,5-a]pyrazin-8-one]
14 | 7.43 | CC1CN(CC2CCCCC2)CC1c1cn2c(C3CCOCC3)ncc2c(=O)[nH]1 (centres unmarked) [Compound 115, 6-[1-(cyclohexylmethyl)-4-methyl-pyrrolidin-3-yl]-3-tetrahydropyran-4-yl-7h-imidazo[1,5-a]pyrazin-8-one]
15 | 7.38 | O=c1[nH]c(CN2CC(Oc3ccc(Cl)cc3)C2)cn2c(-c3ccc(F)cc3)ncc12 [Compound 118, 6-[[3-(4-chlorophenoxy)azetidin-1-yl]methyl]-3-(4-fluorophenyl)-7h-imidazo[1,5-a]pyrazin-8-one]
16 | 6.72 | CC1CN(Cc2ccc(F)cc2)CC1c1cn2c(-c3ccc(OC(F)(F)F)cc3)ncc2c(=O)[nH]1 (centres unmarked) [Compound 119, 6-[1-[(4-fluorophenyl)methyl]-4-methyl-pyrrolidin-3-yl]-3-[4-(trifluoromethoxy)phenyl]-7h-imidazo[1,5-a]pyrazin-8-one]
17 | 7.46 | CC(c1cn2c(-c3ccc(F)cc3)ncc2c(=O)[nH]1)N1CC(Oc2ccc(OC(F)(F)F)cc2)C1 (centres unmarked) [Compound 120, 3-(4-fluorophenyl)-6-[1-[3-[4-(trifluoromethoxy)phenoxy]azetidin-1-yl]ethyl]-7h-imidazo[1,5-a]pyrazin-8-one]
18 | 7.39 | O=c1[nH]c(CN2CC(Oc3c(F)cccc3F)C2)cn2c(-c3ccc(F)cc3)ncc12 [Compound 121, 6-[[3-(2,6-difluorophenoxy)azetidin-1-yl]methyl]-3-(4-fluorophenyl)-7h-imidazo[1,5-a]pyrazin-8-one]
19 | 7.14 | CC(c1cn2c(-c3ccc(F)cc3)ncc2c(=O)[nH]1)N1CC(c2ccc(F)cc2)C1 (centres unmarked) [Compound 124, 3-(4-fluorophenyl)-6-[1-[3-(4-fluorophenyl)azetidin-1-yl]ethyl]-7h-imidazo[1,5-a]pyrazin-8-one]
20 | 7.32 | O=c1[nH]c(CN2CCC(c3cccc(C(F)(F)F)c3)C2)cn2c(C3CCOC3)ncc12 (centres unmarked) [Compound 125, 3-tetrahydrofuran-3-yl-6-[[3-[3-(trifluoromethyl)phenyl]pyrrolidin-1-yl]methyl]-7h-imidazo[1,5-a]pyrazin-8-one]
